For `COc1cccc(CCCN[C@@H]2C[C@@H]3C[C@H]2[C@@H]2CCC[C@H]32)c1.Cl`, the melting point – broadly, the temperature of the solid-liquid transition – is 186 to 188 °C.

For the compound `COCCOc1cccc(CN[C@@H]2C[C@@H]3C[C@H]2[C@@H]2CCC[C@H]32)c1.Cl`, the melting point is 134 °C.

In the case of `CN(C)c1cccc(CN[C@@H]2C[C@@H]3C[C@H]2[C@@H]2CCC[C@H]32)c1.Cl`, the melting point is 166 to 170 °C (dec.).

For the compound `Cl.Ic1cccc(CN[C@@H]2C[C@@H]3C[C@H]2[C@@H]2CCC[C@H]32)c1`, the melting point was 220 to 224 °C (dec.).

Consider `Brc1cccc(CN[C@@H]2C[C@@H]3C[C@H]2[C@@H]2CCC[C@H]32)c1.Cl`, for which the melting point turned out to be 248 °C.

As for `COc1cccc(CN[C@@H]2C[C@@H]3C[C@H]2[C@@H]2CCCC[C@H]32)c1.Cl`, the melting point fell in the range of 234 to 236 °C.

The compound `COc1cccc(CCN[C@@H]2C[C@@H]3C[C@H]2[C@@H]2CCC[C@H]32)c1.Cl` showed a melting point of 222 to 225 °C.

Take `O=C(O)c1cccc(CN[C@@H]2C[C@@H]3C[C@H]2[C@@H]2CCC[C@H]32)c1` [Example 14, (exo/endo)-3-[(octahydro-4,7-methanoinden-5-ylamino)-methyl]benzoic acid]: the melting point lay in the range of 258 to 261 °C.

Values taken from patent US6825231B2, “Substituted norbornylamino derivatives, processes for their preparation, their use as medicaments or diagnostics, and a medicament comprising them” (Aventis Pharma Deutschland GmbH, priority 1999, dated 2004).
